From US5648458A, “Peptides and compounds that bind to ELAM-1” (Affymax Technologies N.V., priority 1995, dated 1997)
Ends that are not written are not given here.

Molecular target: T1, immobilized ELAM-1 (Homo sapiens, UniProt P16581)
T1 construct: truncated form comprising the complete extracellular domain (amino acids 1 through 554); made in house
T1 sequence (P16581 22-554): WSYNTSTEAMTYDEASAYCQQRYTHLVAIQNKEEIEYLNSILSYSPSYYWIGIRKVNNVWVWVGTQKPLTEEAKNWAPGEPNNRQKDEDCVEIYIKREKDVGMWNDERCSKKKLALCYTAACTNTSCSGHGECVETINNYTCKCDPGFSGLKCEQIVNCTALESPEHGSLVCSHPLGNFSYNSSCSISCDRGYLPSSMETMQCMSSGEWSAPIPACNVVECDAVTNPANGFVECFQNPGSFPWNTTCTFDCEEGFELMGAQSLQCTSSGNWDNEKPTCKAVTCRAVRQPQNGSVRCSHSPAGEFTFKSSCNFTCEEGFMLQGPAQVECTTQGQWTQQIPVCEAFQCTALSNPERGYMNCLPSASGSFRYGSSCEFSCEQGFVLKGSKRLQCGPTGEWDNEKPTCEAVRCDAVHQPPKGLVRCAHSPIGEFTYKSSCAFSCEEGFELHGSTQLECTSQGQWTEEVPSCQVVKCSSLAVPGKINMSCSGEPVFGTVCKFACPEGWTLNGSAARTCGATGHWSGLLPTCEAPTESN
Type: cell-based
Conditions: 200000.0
Description: The assay requires HL60 cells labeled with tritiated thymidine. […] The cells are then placed in a T75 flask and incubated at 37° C. for 24 hours. The cells are then collected by centrifugation, washed twice with RPMI/HEPES/0.1% FCS, and resuspended in the same solution at a concentration of about one to two million cells per mL. About 100 μL of this cell preparation are used per well of a 96-well microtiter dish in the assay. The wells of the microtiter dish were first coated with the anti-receptor immobilizing antibody, an anti-HPAP-tail antibody, using about 2.5 μg of antibody per well. […] Then, the wells were washed three times with RPMI 1640 plus 0.1% FCS using a multichannel pipettor.

- blocking of HL60 cell binding, relative to binding in the absence of added compound: over 80%
Sequence: HITWDQLWNVMN
